How the values were obtained:
ZK177.8^41–565 = biological target: T1, ZK177.8^41–565 (Caenorhabditis elegans, UniProt Q09374, H134R/D135N); test: X-ray crystallography, […] Å; format: binding; conditions: crystals with 1 mM GTP / 10 mM dATP, pH 5.5
T1 construct: gene sahd-1; tetramer in asymmetric unit
T1 sequence (Q09374 41-565 H134R/D135N): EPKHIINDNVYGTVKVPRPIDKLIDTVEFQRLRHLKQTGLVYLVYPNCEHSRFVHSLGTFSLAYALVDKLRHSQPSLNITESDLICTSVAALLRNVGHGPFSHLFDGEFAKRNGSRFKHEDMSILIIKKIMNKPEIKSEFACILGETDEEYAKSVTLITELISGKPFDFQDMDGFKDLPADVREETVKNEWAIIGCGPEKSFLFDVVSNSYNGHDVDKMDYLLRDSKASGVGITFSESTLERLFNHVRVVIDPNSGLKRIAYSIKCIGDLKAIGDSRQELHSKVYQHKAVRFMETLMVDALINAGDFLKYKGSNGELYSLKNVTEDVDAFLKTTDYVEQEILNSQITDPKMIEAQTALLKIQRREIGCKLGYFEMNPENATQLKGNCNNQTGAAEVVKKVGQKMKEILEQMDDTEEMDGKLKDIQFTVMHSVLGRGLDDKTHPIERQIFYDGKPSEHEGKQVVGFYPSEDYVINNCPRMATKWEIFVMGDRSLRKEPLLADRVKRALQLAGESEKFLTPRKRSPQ

hSAMHD1 = biological target: T2, hSAMHD1 (Homo sapiens, UniProt Q9Y3Z3); test: formaldehyde cross-linking, dGTP-induced tetramerization, SDS-PAGE; format: binding; conditions: 2 mM dGTP, 10 μM protein, 50 mM KCl, 5 mM MgCl2, pH 7.5; allosteric activator; dGTPase activity also compared in supplement Fig. S3
T2 construct: gene SAMHD1; purified human SAMHD1; construct not described; dGTP-induced tetramer
T2 sequence (Q9Y3Z3 whole entry): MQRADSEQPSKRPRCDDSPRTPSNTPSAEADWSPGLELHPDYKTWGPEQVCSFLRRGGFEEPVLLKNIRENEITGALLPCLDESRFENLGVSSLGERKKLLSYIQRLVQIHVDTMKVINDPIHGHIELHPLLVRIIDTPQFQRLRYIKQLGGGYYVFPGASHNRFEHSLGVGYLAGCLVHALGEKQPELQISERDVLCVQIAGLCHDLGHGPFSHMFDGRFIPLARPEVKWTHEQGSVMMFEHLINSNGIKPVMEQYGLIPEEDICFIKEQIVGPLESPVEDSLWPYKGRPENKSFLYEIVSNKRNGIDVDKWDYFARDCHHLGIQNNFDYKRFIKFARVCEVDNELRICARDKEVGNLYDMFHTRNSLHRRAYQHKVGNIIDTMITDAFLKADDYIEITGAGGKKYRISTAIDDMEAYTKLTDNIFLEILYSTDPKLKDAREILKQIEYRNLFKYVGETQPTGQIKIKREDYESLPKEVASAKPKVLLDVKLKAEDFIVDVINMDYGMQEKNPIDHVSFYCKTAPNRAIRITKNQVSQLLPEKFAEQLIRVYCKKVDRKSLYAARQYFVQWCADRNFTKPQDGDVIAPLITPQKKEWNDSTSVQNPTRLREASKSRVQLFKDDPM

Nc1nc2c(ncn2[C@@H]2O[C@H](COP(=O)(O)OP(=O)(O)OP(=O)(O)O)[C@@H](O)[C@H]2O)c(=O)[nH]1 [GTP]
X-ray crystallography, 1.81 Å (ZK177.8^41–565; allosteric site A1 at tetramer interface): Two nucleotides, GTP and dATP, occupy the allosteric site located at the tetramer interface

Nc1ncnc2c1ncn2[C@H]1C[C@H](O)[C@@H](COP(=O)(O)OP(=O)(O)OP(=O)(O)O)O1 [dATP]
X-ray crystallography, 1.81 Å (ZK177.8^41–565; catalytic site, unhydrolysed, no catalytic metal, also bound at allosteric site A2): within each monomer, a dATP molecule occupies its catalytic site

Nc1nc2c(ncn2[C@H]2C[C@H](O)[C@@H](COP(=O)(O)OP(=O)(O)OP(=O)(O)O)O2)c(=O)[nH]1 [dGTP]
formaldehyde cross-linking, dGTP-induced tetramerization, SDS-PAGE (hSAMHD1): we detected the tetramer formation of hSAMHD1 protein only in the presence of dGTP

Source: PMC10485159, “Biochemical functions and structure of Caenorhabditis elegans ZK177.8 protein: Aicardi–Goutières syndrome SAMHD1 dNTPase ortholog” (The Journal of Biological Chemistry, 2023)
